Among the data in PubChem BioAssay AID520 (NMMLSC, 2006) are IC50 and Ki values, retold here.

This assay deals with N-formyl peptide receptor 2 (Homo sapiens) (UniProt P25090). In words: FPRL1 binding inhibitor potency, dose response, cell-based, FPR counter-screen, fluorescent ligand (AID 520). As to conditions: FPRL1-expressing cells, fluorescent ligand binding inhibition; for pKi: measured here: FPRL1 binding Ki. On the technique in general: Counterscreens check selectivity or assay interference.

Each structure is given as a SMILES string. pKi: −log10 of the molar value. Activity calls are given as the source filed them. How the calls were made is not given here.

As usually defined, the IC50 is the concentration needed to halve the response being measured. By pKi is commonly meant the negative decadic logarithm of the Ki, by convention in mol/L. A low value points to a high Ki.

N-formyl peptide receptor 2 (Homo sapiens), sequence (P25090 whole entry, looked up): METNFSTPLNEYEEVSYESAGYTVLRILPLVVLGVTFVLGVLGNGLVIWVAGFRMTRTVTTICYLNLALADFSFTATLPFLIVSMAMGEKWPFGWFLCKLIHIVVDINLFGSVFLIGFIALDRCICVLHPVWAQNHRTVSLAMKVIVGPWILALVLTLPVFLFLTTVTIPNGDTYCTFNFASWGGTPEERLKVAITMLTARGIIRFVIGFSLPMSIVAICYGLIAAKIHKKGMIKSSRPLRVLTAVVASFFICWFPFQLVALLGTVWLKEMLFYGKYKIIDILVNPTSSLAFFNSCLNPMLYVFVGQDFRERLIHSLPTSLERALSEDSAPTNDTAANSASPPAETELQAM

As to `Cc1ccc(C)c(/C(O)=C2\C(=O)C(=O)N(CCCn3ccnc3)C2c2ccncc2)c1` (stereo not drawn), the IC50 was > 66.7 µM (inactive) and the pKi was less than 4.39.
In the same order, the values of `O=C(C1=C(O)C(=O)N(Cc2ccccc2)C1c1ccco1)c1ccco1` (stereo not drawn) are > 66.7 µM (inactive) and less than 4.39.
`O=C(NCCN1CCOCC1)NC1(C(F)(F)F)Oc2ccc(Cl)cc2O1` (stereo not drawn) gave a pKi of less than 4.39.
The same measure, in the same setting: to `CCc1nnc(NC(=O)CSc2nnc(-c3cc4ccccc4cc3O)n2CC)s1` belongs less than 4.39; to `CCOc1ccccc1NC(=O)CSc1nccn1-c1ccccc1`, less than 4.39.
The same measure, in the same setting: to `CCOC(=O)c1sc(=S)n2c1[nH]c(=O)c1ccc(C(=O)OC)cc12` belongs less than 4.39.
As to `CCCOc1ccc(C2C(C(=O)c3ccco3)=C(O)C(=O)N2CCCn2ccnc2)cc1` (stereo not drawn), the IC50 was > 66.7 µM (inactive) and the pKi was less than 4.39.
As for `COc1cc(C2C(C(=O)c3ccc(C)o3)=C(O)C(=O)N2Cc2cccnc2)ccc1O` (stereo not drawn), the IC50 is > 66.7 µM (inactive) and the pKi was less than 4.39.
Compound `Cc1nc2c(-c3ccc(F)cc3)c(C)nn2c(C)c1CCC(=O)NC(C)CCc1ccco1` (stereo not drawn) had a pKi of less than 4.39.
The same measure, in the same setting: to `COc1ccc(-c2nnc(Nc3nc4c(OC)cccc4s3)o2)cc1` belongs less than 4.39; to `CCOC(=O)CCn1nc(-c2ccc(Cl)cc2)cc1N`, less than 4.39.
As for `COc1ccc(C)cc1NC(=O)C1CCCCC1C(=O)O` (stereo not drawn), the pKi is less than 4.39.
With `COc1cccc2c1C(=O)c1c(O)c3c(c(O)c1C2=O)C[C@@](O)(C(C)=O)C[C@@H]3O[C@H]1C[C@H](N)[C@H](O)[C@H](C)O1`, the pKi is 4.82.
As to `COc1ccc(OC)c(C2C(C(=O)c3cc4ccccc4o3)=C(O)C(=O)N2c2cc(C)on2)c1` (stereo not drawn), the IC50 is > 66.7 µM (inactive) and the pKi is less than 4.39.
In the same order, the values of `Cc1ccc(/C(O)=C2\C(=O)C(=O)N(c3cc(C)on3)C2c2cccc(Br)c2)cc1` (stereo not drawn) are > 66.7 µM (inactive) and less than 4.39.
Consider `Cc1[nH]n2c(=O)cc(-c3ccc([N+](=O)[O-])cc3)nc2c1-c1ccccc1`, for which the pKi is 4.72.
Still for that read-out and setting: next, `O=C(c1ccc(Cl)cc1)N(Cc1cccs1)C1CCS(=O)(=O)C1` (stereo not drawn): less than 4.39; `O=C(O)CCCNc1cc(N2CCC3(CC2)OCCO3)c2noc3c2c1C(=O)c1ccccc1-3`: 5.18; `COc1ccc(NC(=O)C2C3CCC(C3)C2C(=O)O)cc1OC` (stereo not drawn): less than 4.39.
Same read-out and setting: to `CCN(CCCc1ccccc1)CCCc1ccccc1` belongs less than 4.39; to `O=C(Cn1c(=O)oc2ccccc21)N1CCN(c2ccccc2)CC1`, less than 4.39.
Turning to `COCCCN1C(=O)C(=O)/C(=C(/O)c2ccc3c(c2)CC(C)O3)C1c1cccnc1` (stereo not drawn), the IC50 is > 66.7 µM (inactive) and the pKi is less than 4.39.
`O=C(NCC1CCCO1)c1ccc(NC(=O)C2CCCCC2C(=O)O)cc1` (stereo not drawn) showed a pKi of less than 4.39.
Compound `CN1CCN(CCCNC(=O)Nc2cccc3ccccc23)CC1` gave a pKi of less than 4.39.
On to `COc1ccc2ccccc2c1C1CC(=O)N2CN(C3CCCCC3)CSC2=C1C#N` (stereo not drawn), for which the pKi was less than 4.39.
Consider `Cc1cccc(Nc2ccccc2C(=O)NCc2ccco2)c1C`, for which the pKi is less than 4.39.
On to `Cc1cc(N2C(=O)C(O)=C(C(=O)c3ccco3)C2c2cccnc2)no1` (stereo not drawn), for which the IC50 is > 66.7 µM (inactive) and the pKi was less than 4.39.
Turning to `COc1ccc(-c2nc(N3CCCC3)[nH]c(=O)c2C#N)cc1`, the pKi is less than 4.39.
Same read-out and setting: to `CCOC(=O)C1CCN(Cc2ccc(C(=O)OC)cc2)CC1` belongs less than 4.39; to `CCOC(=O)c1ccc(NC(=O)Nc2ccc3c4c(cccc24)C(=O)N3CC)cc1`, less than 4.39.
On to `COCCCN1C(=O)C(O)=C(C(=O)c2ccco2)C1c1ccc(Br)cc1` (stereo not drawn), for which the IC50 was > 66.7 µM (inactive) and the pKi was less than 4.39.
Regarding `CCOC(=O)Cc1cc(=O)n2[nH]c(C)c(-c3ccc(OC)cc3)c2n1`, the pKi was less than 4.39.
Regarding `CC1=C(C#N)C(c2ccc3ncccc3c2)C(C#N)=C(C)N1`, the IC50 was > 66.7 µM (inactive) and the pKi was less than 4.39.
The like results for `CCOc1ccc(C2C(C(=O)c3ccco3)=C(O)C(=O)N2Cc2cccnc2)cc1` (stereo not drawn) were, in that order, > 66.7 µM (inactive) and less than 4.39.
Regarding `CC1CCN(c2nc(-c3ccccc3)c(C#N)c(=O)[nH]2)CC1`, the pKi is less than 4.39.
Consider `COCCN1C(=O)C(O)=C(C(=O)c2cccs2)C1c1ccccc1` (stereo not drawn), for which the IC50 is > 66.7 µM (inactive) and the pKi was less than 4.39.
In the same order, the values of `CCCOc1ccc(C2C(C(=O)c3ccc(C)o3)=C(O)C(=O)N2CCCn2ccnc2)cc1` (stereo not drawn) are > 66.7 µM (inactive) and less than 4.39.
Take `O=c1cc(N2CCc3ccccc32)[nH]c(=O)n1Cc1ccc(F)cc1`: the pKi was less than 4.39.
Same read-out and setting: next, `COc1ccc(-c2cn3cccnc3n2)cc1NC(=O)C1CCCC1`: less than 4.39; `COc1ccc(-c2cn3cccnc3n2)cc1NC(=O)CC(C)C`: 4.57; `CCC(CC)C(=O)Nc1c2cnn(-c3ccccc3)c2nc(=O)n1-c1ccccc1`: less than 4.39.
The compound `COc1ccc(-c2nc(-c3ccc(NC(=O)c4ccc(Br)o4)cc3)no2)cc1OC` had a pKi of less than 4.39.
`Cc1ccc(C2/C(=C(/O)c3cnn(-c4ccccc4)c3C)C(=O)C(=O)N2CCN2CCOCC2)o1` (stereo not drawn): the IC50 was > 66.7 µM (inactive) and the pKi was less than 4.39.
The compound `CCOc1cc(C(=O)NCc2nnc(SCC(=O)OC)n2C)cc(OCC)c1OCC` showed a pKi of 4.95.
Consider `CC1Cc2cc(/C(O)=C3\C(=O)C(=O)N(CCN4CCOCC4)C3c3ccccc3F)ccc2O1` (stereo not drawn), for which the IC50 was > 66.7 µM (inactive) and the pKi is less than 4.39.
In the same order, the values of `Cc1nc2c(C)cccn2c1/C(O)=C1\C(=O)C(=O)N(CCN2CCOCC2)C1c1cccs1` (stereo not drawn) are > 66.7 µM (inactive) and less than 4.39.
In the same order, the values of `COc1ccc(/C(O)=C2\C(=O)C(=O)N(Cc3ccco3)C2c2ccc(OC)cc2OC)cc1` (stereo not drawn) are > 66.7 µM (inactive) and less than 4.39.
Consider `Cc1ccc(C2C3=C(CC(C)(C)CC3=O)Nc3[nH]c(=S)[nH]c(=O)c32)cc1` (stereo not drawn), for which the IC50 is > 66.7 µM (inactive) and the negative logarithm of the Ki (pKi) is less than 4.39.
As to `CCc1ccccc1NC(=O)C(C#N)Cc1cccnc1` (stereo not drawn), the pKi was less than 4.39.
Turning to `COc1cc(-n2nc(C)c3c2OC(N)=C(C#N)C3c2ccccc2)c(Cl)c(Br)c1O` (stereo not drawn), the IC50 is > 66.7 µM (inactive) and the pKi was less than 4.39.
For the compound `CC1(C)S[C@@H]2[C@H](NC(=O)C(C(=O)O)c3ccccc3)C(=O)N2[C@H]1C(=O)O` (stereo partly drawn), the pKi was less than 4.39.
For `Cc1nc(C)c(C(=O)C2=C(O)C(=O)N(CCCn3ccnc3)C2c2ccc(Cl)cc2)s1` (stereo not drawn), the IC50 was > 66.7 µM (inactive) and the pKi is less than 4.39.
In turn, `CC1CCN(S(=O)(=O)c2ccc3c(c2)oc(=O)n3CC(=O)NCc2ccc3c(c2)OCO3)CC1` had a pKi of less than 4.39.
Same read-out and setting: next, `Cc1ccc(Nc2ccc(C(=O)O)cc2N)cc1`: less than 4.39; `COc1ccc(-c2nnc(Nc3nc4c(OC)cccc4s3)o2)c(OC)c1`: less than 4.39.
On the same count and under the same terms, next, `COc1ccc2nc(Nc3nc(C)c(C(C)=O)s3)sc2c1`: less than 4.39; `Cc1sc(NC(=O)C2CCCCC2C(=O)O)c(C(N)=O)c1-c1ccc(C(C)(C)C)cc1` (stereo not drawn): less than 4.39.
Take `Cc1ccsc1C1C2=C(CC(C)(C)CC2=O)Nc2ncnn21` (stereo not drawn): the IC50 is > 66.7 µM (inactive) and the pKi was less than 4.39.
In the same order, the values of `Cc1ccc(C2/C(=C(/O)c3ccc(Br)cc3)C(=O)C(=O)N2Cc2ccco2)o1` (stereo not drawn) are > 66.7 µM (inactive) and less than 4.39.
The compound `COc1ccccc1Oc1c(C)oc2c(CN(C)C)c(O)ccc2c1=O` had a pKi of less than 4.39.
On the same count and under the same terms, next, `CC1(C)S[C@@H]2[C@H](NC(=O)Cc3ccccc3)C(=O)N2[C@H]1C(=O)O`: less than 4.39; `CN1C(=O)/C(=C2\SC(=S)N(C(CCC(=O)O)C(=O)O)C2=O)c2ccccc21` (stereo not drawn): less than 4.39; `Clc1ccc(C2CC(c3cccs3)n3ncnc3N2)cc1Cl` (stereo not drawn): less than 4.39.
As to `COc1cc(C2C(C(=O)c3ccco3)=C(O)C(=O)N2CCc2ccccc2)ccc1O` (stereo not drawn), the IC50 is > 66.7 µM (inactive) and the pKi was less than 4.39.
As to `COc1ccc(S(=O)(=O)NC(C)C(=O)Nc2cccc(C(C)=O)c2)cc1` (stereo not drawn), the pKi was less than 4.39.
With `CCOc1ccc(/C(O)=C2/C(=O)C(=O)N(CC3CCCO3)C2c2ccc(C)o2)cc1` (stereo not drawn), the IC50 is > 66.7 µM (inactive) and the pKi was less than 4.39.
In turn, `COc1ccc2c(=O)c(N3C(=O)c4ccccc4C3=O)c(C)oc2c1` showed a pKi of less than 4.39.
For `COCCCN1C(=O)C(=O)/C(=C(/O)c2ccc(OC)cc2C)C1c1cccnc1` (stereo not drawn), the IC50 was > 66.7 µM (inactive) and the pKi was less than 4.39.
Compound `COc1ccc(CN(C(=O)c2ccccc2OC)C2CCS(=O)(=O)C2)cc1` (stereo not drawn) gave a pKi of less than 4.39.
For `O=C(C1=C(O)C(=O)N(c2ncccn2)C1c1ccc(Cl)c(Cl)c1)c1ccco1` (stereo not drawn), the IC50 is > 66.7 µM (inactive) and the pKi is less than 4.39.
In the same order, the values of `COc1ccccc1C1/C(=C(/O)c2ccccc2)C(=O)C(=O)N1CC(C)O` (stereo not drawn) are > 66.7 µM (inactive) and less than 4.39.
In turn, `C=CCn1c(NC(=O)c2ccccc2)c(C#N)c2nc3ccccc3nc21` gave a pKi of less than 4.39.
The compound `O=C(NCc1cccnc1)C1c2ccccc2C(=O)N1C1CCCCCCC1` (stereo not drawn) gave a pKi of less than 4.39.
Still for that read-out and setting: next, `CC(C)OC(=O)c1nnn(-c2nonc2N)c1CN1CCc2ccccc2C1`: less than 4.39; `Cc1nn(-c2nc3ccccc3s2)c(C)c1Oc1ccccc1O`: less than 4.39.
Turning to `CCOc1ccc(/C(O)=C2/C(=O)C(=O)N(c3nc(C)c(C)s3)C2c2ccco2)cc1` (stereo not drawn), the IC50 is > 66.7 µM (inactive) and the pKi was less than 4.39.
Compound `Clc1ccc(Cc2nn3c(-c4ccncc4)nnc3s2)cc1` showed a pKi of less than 4.39.
In the case of `CCOc1cccc(/C(O)=C2/C(=O)C(=O)N(Cc3ccco3)C2c2ccncc2)c1` (stereo not drawn), the IC50 was > 66.7 µM (inactive) and the pKi is less than 4.39.
For `CCN(C(=O)Cc1c(C(=O)O)[nH]c2ccccc12)c1cc(OC)ccc1OC`, the pKi was less than 4.39.
